In patent US9040516B2, “Uracil derivative and use thereof for medical purposes” (SUMITOMO DAINIPPON PHARMA CO., LTD., priority 2011, dated 2015):
Where a name gives a salt, the structure may show the parent alone.

Target: T1, human neutrophil elastase (Homo sapiens, UniProt P08246)
T1 construct: purchased Elastin Products Company
T1 sequence (P08246 30-267): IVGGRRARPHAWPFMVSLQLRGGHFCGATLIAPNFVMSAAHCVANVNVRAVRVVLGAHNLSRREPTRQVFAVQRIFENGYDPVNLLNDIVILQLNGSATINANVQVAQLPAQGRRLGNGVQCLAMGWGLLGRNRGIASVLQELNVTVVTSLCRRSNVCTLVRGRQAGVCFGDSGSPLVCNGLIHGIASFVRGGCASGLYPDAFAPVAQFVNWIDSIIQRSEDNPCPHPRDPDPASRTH
Test: Inhibitory action against human neutrophil elastase (Test Example 1; fluorogenic substrate MeOSuc-AAPV-AMC, buffer with 2M NaCl, 0.002% Brij-35)
Assay type: biochemical
Conditions: for IC50: 37° C., read-out: IC50 value (compound concentration required for 50% inhibition of human neutrophil elastase); for Inhibition ratio (%): at 100 μM
Description: Assay buffer (0.4 unit/ml HNE (human neutrophil elastase, available from Elastin Products Company), 200 mM HEPES [N-(2-hydroxyethyl)piperazine-N′-(2-ethanesulfonic acid)], pH 7.5, 2M NaCl, 0.002% Brij-35) 100 μl, water for injection 40 μl and DMSO (dimethyl sulfoxide) solution of the present compound 20 μl were mixed in a 96 well plate and the mixed solutions were pre-incubated at 37° C. for five minutes. After pre-incubation, MeOSuc-AAPV-AMC (methoxysuccinyl-alanyl-alanyl-prolyl-valyl-aminomethyl cumaride (available from Sigma Aldrich Co.) solution as fluorogenic substrate (which was dissolved in 10% DMSO solution so as to adjust to 0.5 mM) 40 μl was added to the above-prepared mixed solution so as to initiate the reaction, and the mixture was incubated at 37° C. for five minutes. The fluorescence intensity of AMC was measured at an excitation wavelength of 380 nm and a fluorescence wavelength of 460 nm and the inhibition ratio was determined.

Row | IC50 [nM] | Inhibition ratio (%) | Compound
1 | 535 | – | Cc1c(-c2ccnn2-c2ccc(C#N)cc2)c(=O)n(CCC(=O)O)c(=O)n1-c1cccc(C(F)(F)F)c1 [Example 73, 3-[5-[1-(4-Cyanophenyl)-1H-pyrazol-5-yl]-4-methyl-2,6-dioxo-3-(3-trifluoromethylphenyl)-2,3-dihydropyrimidin-1(6H)-yl]propanoic acid]
2 | 68 | – | CCCn1c(=O)c(-n2cnnc2-c2ccc(C#N)cc2)c(C)n(-c2cccc(C(F)(F)F)c2)c1=O [Example 62, 4-[4-[6-Methyl-2,4-dioxo-3-propyl-1-(3-trifluoromethylphenyl)-1,2,3,4-tetrahydropyrimidin-5-yl]-4H-1,2,4-triazol-3-yl]benzonitrile]
3 | 43 | – | CNCCn1c(=O)c(-c2ccnn2-c2ccc(C#N)cc2)c(C)n(-c2cccc(C(F)(F)F)c2)c1=O [Example 70, 4-[5-[6-Methyl-3-(2-methylaminoethyl)-2,4-dioxo-1-(3-trifluoromethylphenyl)-1,2,3,4-tetrahydropyrimidin-5-yl]-1H-pyrazol-1-yl]benzonitrile]
4 | – | 90 | Cc1c(-c2ccnn2-c2ccc(C#N)cc2)c(=O)n(C)c(=O)n1-c1ccc(C(F)(F)F)cc1 [Example 16, 4-[5-[3,6-dimethyl-2,4-dioxo-1-(4-trifluoromethylphenyl)-1,2,3,4-tetrahydropyrimidin-5-yl]-1H-pyrazol-1-yl]benzonitrile]
5 | 312 | – | Cc1c(-c2ccnn2-c2ccc(C#N)cc2)c(=O)n(CCCC(=O)O)c(=O)n1-c1cccc(C(F)(F)F)c1 [Example 74, 4-[5-[1-(4-Cyanophenyl)-1H-pyrazol-5-yl]-4-methyl-2,6-dioxo-3-(3-trifluoromethylphenyl)-2,3-dihydropyrimidin-1(6H)-yl]butanoic acid]
6 | 616 | – | Cc1c(-c2ccnn2-c2ccc(C#N)cc2)c(=O)n(CCCC(=O)N(C)C)c(=O)n1-c1cccc(C(F)(F)F)c1 [Example 81, 4-[5-[1-(4-cyanophenyl)-1H-pyrazol-5-yl]-4-methyl-2,6-dioxo-3-(3-trifluoromethylphenyl)-2,3-dihydropyrimidin-1(6H)-yl]-N,N-dimethylbutaneamide]
7 | 2950 | – | COc1ccc(Cn2c(=O)c(-c3ccnn3-c3ccc(C#N)cc3)c(C)n(-c3cccc(C(F)(F)F)c3)c2=O)cc1 [Example 9, 4-[5-[3-(4-methoxybenzyl)-6-methyl-2,4-dioxo-1-(3-trifluoromethylphenyl)-1,2,3,4-tetrahydropyrimidin-5-yl]-1H-pyrazol-1-yl]benzonitrile]
8 | 776 | – | Cc1c(-c2ccnn2-c2ccc(C#N)cc2)c(=O)n(CCCO)c(=O)n1-c1cccc(C(F)(F)F)c1 [Example 83, 4-[5-[3-(3-Hydroxypropyl)-6-methyl-2,4-dioxo-1-(3-trifluoromethylphenyl)-1,2,3,4-tetrahydropyrimidin-5-yl]-1H-pyrazol-1-yl]benzonitrile]
9 | 108 | – | Cc1c(-c2ccnn2-c2ccc(C#N)cc2)c(=O)n(CC(=O)N[C@@H](C)c2ccccc2)c(=O)n1-c1cccc(C(F)(F)F)c1 [Example 82, (S)-2-(5-(1-(4-cyanophenyl)-1H-pyrazole-5-yl)-4-methyl-2,6-dioxo-3-(3-(trifluoromethyl)phenyl)-2,3-dihydropyrimidin-1(6H)-yl)-N-(1-phenylethyl)acetamide]
10 | 184 | – | CNC(=O)Cn1c(=O)c(-c2ccnn2-c2ccc(C#N)cc2)c(C)n(-c2cccc(C(F)(F)F)c2)c1=O [Example 77, 2-[5-[1-(4-cyanophenyl)-1H-pyrazol-5-yl]-4-methyl-2,6-dioxo-3-(3-trifluoromethylphenyl)-2,3-dihydropyrimidin-1(6H)-yl]-N-methylacetamide]
11 | 64 | – | Cc1c(-c2ccnn2-c2ccc(C#N)cc2)c(=O)n(CCCCCNC(=O)OC(C)(C)C)c(=O)n1-c1cccc(C(F)(F)F)c1 [Example 30, Tert-butyl 5-[5-[1-(4-cyanophenyl)-1H-pyrazol-5-yl]-4-methyl-2,6-dioxo-3-(3-trifluoromethyl)-2,3-dihydropyrimidine-1 (6H)-yl]pentylcarbamate]
12 | 86 | – | Cc1c(-c2ccnn2-c2ccc(C#N)cc2)c(=O)n(C)c(=O)n1-c1ccc(F)c(C(F)(F)F)c1 [Example 13, 4-[5-[1-(4-fluoro-3-trifluorophenyl)-3,6-dimethyl-2,4-dioxo-1,2,3,4-tetrahydropyrimidin-5-yl]-1H-pyrazol-1-yl]benzonitrile]
13 | 170 | – | CCOC(=O)CCCn1c(=O)c(-c2ccnn2-c2ccc(C#N)cc2)c(C)n(-c2cccc(C(F)(F)F)c2)c1=O [Example 5, 4-[5-[1-(4-cyanophenyl)-1H-pyrazol-5-yl]-4-methyl-2,6-dioxo-3-(3-trifluoromethylphenyl)-2,3-dihydropyrimidin-1(6H)-yl]butanoic acid ethyl ester]
14 | 4.3 | – | Cc1c(-c2ccnn2-c2ccc(C#N)cc2)c(=O)n(CCCCCN)c(=O)n1-c1cccc(C(F)(F)F)c1 [Example 85, 4-[5-[3-(5-Aminopentyl)-6-methyl-2,4-dioxo-1-(3-trifluoromethylphenyl)-1,2,3,4-tetrahydropyrimidin-5-yl]-1H-pyrazol-1-yl]benzonitrile hydrochloride]
15 | 111 | – | CSc1cc(C#N)ccc1-n1nccc1-c1c(C)n(-c2cccc(C(F)(F)F)c2)c(=O)n(C)c1=O [Example 36, 4-[5-[3,6-dimethyl-2,4-dioxo-1-(3-trifluoromethylphenyl)-1,2,3,4-tetrahydropyrimidin-5-yl]-1H-pyrazol-1-yl]-3-(methylthio)benzonitrile]
16 | 8340 | – | COc1ccc(-n2nccc2-c2c(C)n(-c3cccc(C(F)(F)F)c3)c(=O)n(C)c2=O)cc1 [Example 40, 5-(1-(4-methoxyphenyl)-1H-pyrazol-5-yl)-3,6-dimethyl-1-(3-(trifluoromethyl)phenyl)pyrimidin-2,4(1H,3H)-dione]
17 | 1490 | – | COc1cccc(-n2c(C)c(-c3ccnn3-c3ccc(C#N)cc3)c(=O)n(C)c2=O)c1 [Example 12, 4-[5-[1-(3-methoxyphenyl)-3,6-dimethyl-2,4-dioxo-1,2,3,4-tetrahydropyrimidin-5-yl]-1H-pyrazol-1-yl]benzonitrile]
18 | 120 | – | COC(Cn1c(=O)c(-c2ccnn2-c2ccc(C#N)cc2)c(C)n(-c2cccc(C(F)(F)F)c2)c1=O)OC [Example 7, 4-[5-[3-(2,2-dimethoxyethyl)-6-methyl-2,4-dioxo-1-(3-trifluoromethylphenyl)-1,2,3,4-tetrahydropyrimidin-5-yl]-1H-pyrazol-1-yl]benzonitrile]
19 | – | 50 | COC(=O)c1cccc(-n2c(C)c(-c3ccnn3-c3ccc(C#N)cc3)c(=O)n(C)c2=O)c1 [Example 32, 3-[5-[1-(4-cyanophenyl)-1H-pyrazol-5-yl]-3,6-dimethyl-2,4-dioxo-3,4-dihydropyrimidin-1(2H)-yl]benzoic acid methyl ester]
20 | 123 | – | Cc1c(-c2ccnn2-c2ccc(C#N)cc2)c(=O)n(CC(=O)OCc2ccccc2)c(=O)n1-c1cccc(C(F)(F)F)c1 [Example 6, 2-[5-[1-(4-cyanophenyl)-1H-pyrazol-5-yl]-4-methyl-2,6-dioxo-3-(3-trifluoromethylphenyl)-2,3-dihydropyrimidin-1(6H)-yl]acetic acid benzyl ester]
21 | 12600 | – | Cc1c(-c2ccnn2-c2ccc(C#N)cc2)c(=O)n(C)c(=O)n1-c1ccccc1 [Example 14, 4-[5-(1-phenyl-3,6-dimethyl-2,4-dioxo-1,2,3,4-tetrahydropyrimidin-5-yl)-1H-pyrazol-1-yl]benzonitrile]
22 | 252 | – | 5-[1-(-chlorophenyl)-1H-pyrazol-5-yl]-3,6-dimethyl-1-(3-trifluoromethylphenyl)pyrimidin-2,4(1H,3H)-dione [Example 21]
23 | 131 | – | CCOC(=O)CCn1c(=O)c(-c2ccnn2-c2ccc(C#N)cc2)c(C)n(-c2cccc(C(F)(F)F)c2)c1=O [Example 4, 3-[5-[1-(4-cyanophenyl)-1H-pyrazol-5-yl]-4-methyl-2,6-dioxo-3-(3-trifluoromethylphenyl)-2,3-dihydropyrimidin-1(6H)-yl]propanoic acid ethyl ester]
24 | 92500 | – | Cc1c(-c2ccnn2-c2ccc(C#N)cc2)c(=O)n(C)c(=O)n1-c1cccc(C(N)=O)c1 [Example 104, 3-[5-[1-(4-Cyanophenyl)1H-pyrazol-5-yl]-3,6-dimethyl-2,4-dioxo-3,4-dihydropyrimidin-1(2H)yl]benzamide]
25 | 232 | – | Cc1c(-c2ccnn2-c2ccc(C#N)cc2)c(=O)n(CC(N)=O)c(=O)n1-c1cccc(C(F)(F)F)c1 [Example 76, 2-[5-[1-(4-cyanophenyl)-1H-pyrazol-5-yl]-4-methyl-2,6-dioxo-3-(3-trifluoromethylphenyl)-2,3-dihydropyrimidin-1(6H)-yl]-acetamide]
26 | 648 | – | Cc1c(-c2ccnn2-c2ccc(C#N)cc2)c(=O)n(C)c(=O)n1-c1cccc(C#N)c1 [Example 10, 3-[5-[1-(4-cyanophenyl)-1H-pyrazol-5-yl]-3,6-dimethyl-2,4-dioxo-3,4-dihydropyrimidin-1(2H)-yl]benzonitrile]
27 | 3.2 | – | CC(=O)NCCCCCn1c(=O)c(-c2ccnn2-c2ccc(C#N)cc2)c(C)n(-c2cccc(C(F)(F)F)c2)c1=O [Example 86, N-[5-[5-[1-(4-Cyanophenyl)-1H-pyrazol-5-yl]-4-methyl-2,6-dioxo-3-(3-trifluoromethylphenyl)-2,3-dihydropyrimidin-1(6H)-yl]pentyl]acetamide]
